# Residues, ends and D or L forms follow the SMILES beside them.
# Legend:
# [1] = Determination of peptide hydrophobicity with RP-HPLC (adjusted retention time); assay type: physicochemical; details: for tR’: Table 3, adjusted retention time as hydrophobicity; for tR’ (adjusted retention time): Table 1 and b9, measure of hydrophobicity, RP-HPLC, Phenomenex Luna C18(2) 3.0 × 100 mm, 5 µm, linear 10–55% acetonitrile in water over 60 min, 0.5 mL/min, peptide 1 g/L; for ∆tR: tR’ of the lipopeptide minus tR’ of C10-RR-NH2 or C12-RR-NH2, same RP-HPLC conditions
# Method in brief: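 Peptides at 1 g/L in water with 0.1% TFA run on a C18 column (3.0 × 100 mm, 5 µm). Elution with a linear 10–55% acetonitrile gradient over 60 min, 0.1% TFA in both eluents, 0.5 mL/min, 25.0 ± 0.1 °C. Detection at 214 nm, in triplicate.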
# S. aureus ATCC 25923 = assay type: cell-based, Staphylococcus aureus; details: ATCC 25923, 18 h
# Method in brief: (§1)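 CLSI broth microdilution; MHB; inoculum 5 × 10^5 CFU/mL; lipopeptides 0.5–256 µg/mL; 37 °C, 18 h; endpoint visible growth inhibition; n = 3.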
# [2] = test system: S. aureus ATCC 33591 (MRSA); assay type: cell-based, Staphylococcus aureus; details: ATCC 33591, 18 h
# Method in brief: as §1
# P. aeruginosa ATCC 9027 = assay type: cell-based, Pseudomonas aeruginosa; details: ATCC 9027, 18 h
# Method in brief: as §1
# C. albicans ATCC 10231 = assay type: cell-based, Candida albicans; details: ATCC 10231, 24 h, pH 7
# [3] = test system: human red blood cells (hRBCs); assay type: cell-based; details: red cells of human, 1 h
# Method in brief: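 Fresh EDTA-anticoagulated human RBCs, PBS-washed, at 4% (v/v) final were exposed to lipopeptides at 0.5–256 µg/mL for 1 h at 37 °C. Released haemoglobin in supernatant read at 540 nm; PBS as 0% and 1% Triton X-100 as 100% haemolysis. Triplicates.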
# E. faecium ATCC 700221 = assay type: cell-based, Enterococcus faecium; details: ATCC 700221, 18 h
# Method in brief: as §1
# [4] = test system: K. pneumoniae ATCC 700603; assay type: cell-based, Klebsiella pneumoniae; details: ATCC 700603, 18 h
# Method in brief: as §1
# [5] = test system: A. baumannii ATCC BAA-1605; assay type: cell-based, Acinetobacter baumannii; details: ATCC BAA-1605, 18 h
# Method in brief: as §1
# K. aerogenes ATCC 13048 = assay type: cell-based, Klebsiella aerogenes; details: ATCC 13048, 18 h
# Method in brief: as §1
# [6] = RP-HPLC C18, linear 10–55% acetonitrile over 60 min, 0.1% TFA, 25.0 °C, UV 214 nm, triplicate
# [7] = 0.1% TFA, 25.0 °C, UV 214 nm, triplicate
Compound,"tR’ [1, 6] [min]",MIC SA (S. aureus ATCC 25923),MIC S [2],MIC PA (P. aeruginosa ATCC 9027) [µg/mL],MIC CA (C. albicans ATCC 10231),HC50 [3],MIC E1 (E. faecium ATCC 700221),MIC K [4],MIC A [5] [µg/mL],MIC E2 (K. aerogenes ATCC 13048),"tR’ (adjusted retention time) [1, 7] [min]",∆tR [1] [min],"Adjusted retention time ([1]; Table 2, nC = carbon atoms in fatty acid chain, RP-HPLC C18, linear 10–55% acetonitrile over 60 min, 0.1% TFA, 25.0 °C, UV 214 nm, triplicate) [min]"
"CCCCCCCCCCCCCC(=O)N[C@@H](CC(N)=O)C(=O)N[C@@H](CCCNC(=N)N)C(=O)N[C@@H](CCCNC(=N)N)C(N)=O [compound 62, C14-NRR-NH2] (HELM PEPTIDE1{[CCCCCCCCCCCCCC(=O)[*:2]].N.R.R.[am]}$$$$V2.0)",38.71,16 µg/mL,16 µg/mL,32,16 µg/mL,64.37 (±2.23) µg/mL,8 µg/mL,128 µg/mL,32,128 µg/mL,,,
"CCCCCCCCCCCC(=O)N[C@@H](CCCNC(=N)N)C(=O)N[C@@H](CCCNC(=N)N)C(N)=O [compound 3, C12-RR-NH2, reference compound] (HELM PEPTIDE1{[CCCCCCCCCCCC(=O)[*:2]].R.R.[am]}$$$$V2.0)",32.58,32 µg/mL,32 µg/mL,128,64 µg/mL,>256 µg/mL,32 µg/mL,>256 (-) µg/mL,256,>256 (-) µg/mL,32.58,,
"CCCCCCCCCCCCCCCCCC(=O)N[C@@H](CCCNC(=N)N)C(=O)N[C@@H](CCCNC(=N)N)C(N)=O [compound 6, C18-RR-NH2, reference compound] (HELM PEPTIDE1{[CCCCCCCCCCCCCCCCCC(=O)[*:2]].R.R.[am]}$$$$V2.0)",53.39,16 µg/mL,16 µg/mL,64,4 µg/mL,25.19 (±0.67) µg/mL,8 µg/mL,16 µg/mL,32,16 µg/mL,,,
"CCCCCCCCCCCCCC(=O)N[C@@H](CCS(C)(=O)=O)C(=O)N[C@@H](CCCNC(=N)N)C(=O)N[C@@H](CCCNC(=N)N)C(N)=O [compound 58, C14-M(O2)RR-NH2] (HELM PEPTIDE1{[CCCCCCCCCCCCCC(=O)[*:2]].[CS(=O)(=O)CC[C@H](N[*:1])C(=O)[*:2]].R.R.[am]}$$$$V2.0)",41.17,16 µg/mL,16 µg/mL,32,16 µg/mL,70.11 (±2.93) µg/mL,8 µg/mL,256 µg/mL,32,256 µg/mL,,,
"CCCCCCCCCCCC(=O)N[C@@H](CCC)C(=O)N[C@@H](CCCNC(=N)N)C(=O)N[C@@H](CCCNC(=N)N)C(N)=O [compound 69, C12-NvaRR-NH2] (HELM PEPTIDE1{[CCCCCCCCCCCC(=O)[*:2]].[Nva].R.R.[am]}$$$$V2.0)",37.67,8 µg/mL,16 µg/mL,32,32 µg/mL,207.62 (±5.27) µg/mL,16 µg/mL,256 µg/mL,64,256 µg/mL,,,
"CCCCCCCCCC(=O)N[C@@H](Cc1c[nH]c2ccccc12)C(=O)N[C@@H](CCCNC(=N)N)C(=O)N[C@@H](CCCNC(=N)N)C(N)=O [compound 96, C10-WRR-NH2] (HELM PEPTIDE1{[CCCCCCCCCC(=O)[*:2]].W.R.R.[am]}$$$$V2.0)",34.31,16 (>16) µg/mL,16 (>16) µg/mL,32,32 µg/mL,>256 µg/mL,16 (>16) µg/mL,>256 (-) µg/mL,64,>256 (-) µg/mL,,,
"CCCCCCCCCCCC(=O)N[C@@H](CCCC)C(=O)N[C@@H](CCCNC(=N)N)C(=O)N[C@@H](CCCNC(=N)N)C(N)=O [compound 65, C12-NleRR-NH2] (HELM PEPTIDE1{[CCCCCCCCCCCC(=O)[*:2]].[Nle].R.R.[am]}$$$$V2.0)",,8 µg/mL,8 µg/mL,8,16 (>16) µg/mL,>256 µg/mL,8 µg/mL,256 µg/mL,32,256 µg/mL,,,39.958
"CCCCCCCCCCCCCC(=O)N[C@@H](CCSC)C(=O)N[C@@H](CCCNC(=N)N)C(=O)N[C@@H](CCCNC(=N)N)C(N)=O [compound 50, C14-MRR-NH2] (HELM PEPTIDE1{[CCCCCCCCCCCCCC(=O)[*:2]].M.R.R.[am]}$$$$V2.0)",44.69,4 µg/mL,8 µg/mL,8,4 µg/mL,35.11 (±0.90) µg/mL,8 µg/mL,128 µg/mL,32,128 µg/mL,,,

# The next lines start with the values.
"tR’ [1, 6] [min]",MIC SA (S. aureus ATCC 25923),MIC S [2],MIC PA (P. aeruginosa ATCC 9027) [µg/mL],MIC CA (C. albicans ATCC 10231),HC50 [3],MIC E1 (E. faecium ATCC 700221),MIC K [4],MIC A [5] [µg/mL],MIC E2 (K. aerogenes ATCC 13048),"tR’ (adjusted retention time) [1, 7] [min]",∆tR [1] [min],"Adjusted retention time ([1]; Table 2, nC = carbon atoms in fatty acid chain, RP-HPLC C18, linear 10–55% acetonitrile over 60 min, 0.1% TFA, 25.0 °C, UV 214 nm, triplicate) [min]",Compound
36.17,8 µg/mL,8 µg/mL,16,32 µg/mL,123.08 (±1.12) µg/mL,16 µg/mL,128 µg/mL,32,128 µg/mL,,,,"CCCCCCCCCCCC(=O)N[C@@H](Cc1ccc(O)cc1)C(=O)N[C@@H](CCCNC(=N)N)C(=O)N[C@@H](CCCNC(=N)N)C(N)=O [compound 101, C12-YRR-NH2] (HELM PEPTIDE1{[CCCCCCCCCCCC(=O)[*:2]].Y.R.R.[am]}$$$$V2.0)"
41.45,4 µg/mL,8 µg/mL,8,8 µg/mL,91.21 (±16.38) µg/mL,8 µg/mL,256 µg/mL,64,256 µg/mL,41.45,8.87,,"CCCCCCCCCCCC(=O)N[C@@H](Cc1ccccc1)C(=O)N[C@@H](CCCNC(=N)N)C(=O)N[C@@H](CCCNC(=N)N)C(N)=O [compound 25, C12-FRR-NH2] (HELM PEPTIDE1{[CCCCCCCCCCCC(=O)[*:2]].F.R.R.[am]}$$$$V2.0)"
34.68,16 (>16) µg/mL,16 (>16) µg/mL,32,64 µg/mL,>256 µg/mL,32 µg/mL,>256 (-) µg/mL,64,>256 (-) µg/mL,34.68,10.38,,"CCCCCCCCCC(=O)N[C@@H](Cc1ccccc1)C(=O)N[C@@H](CCCNC(=N)N)C(=O)N[C@@H](CCCNC(=N)N)C(N)=O [compound 24, C10-FRR-NH2] (HELM PEPTIDE1{[CCCCCCCCCC(=O)[*:2]].F.R.R.[am]}$$$$V2.0)"
40.79,4 µg/mL,2 µg/mL,8,8 µg/mL,42.42 (±0.57) µg/mL,8 µg/mL,256 µg/mL,32,256 µg/mL,,,,"CCCCCCCCCCCC(=O)N[C@@H](Cc1c[nH]c2ccccc12)C(=O)N[C@@H](CCCNC(=N)N)C(=O)N[C@@H](CCCNC(=N)N)C(N)=O [compound 97, C12-WRR-NH2] (HELM PEPTIDE1{[CCCCCCCCCCCC(=O)[*:2]].W.R.R.[am]}$$$$V2.0)"
47.75,4 µg/mL,32 µg/mL,8,2 µg/mL,39.09 (±1.18) µg/mL,16 µg/mL,64 µg/mL,128,64 µg/mL,,,,"CCCCCCCCCCCCCC(=O)N[C@@H](Cc1ccccc1)C(=O)N[C@@H](CCCNC(=N)N)C(=O)N[C@@H](CCCNC(=N)N)C(N)=O [compound 26, C14-FRR-NH2] (HELM PEPTIDE1{[CCCCCCCCCCCCCC(=O)[*:2]].F.R.R.[am]}$$$$V2.0)"
